Test results reported in publication PMC6620293, “Anti-cancer activity of the novel 2-hydroxydiarylamide derivatives IMD-0354 and KRT1853 through suppression of cancer cell invasion, proliferation, and survival mediated by TMPRSS4” (Scientific Reports, 2019).

Biological target: dipeptidyl peptidase 4 (DPP4) (Homo sapiens, UniProt P27487)
Test: protease activity profiling assay (BPS Bioscience service), […]~[…] compound in […] DMSO
Assay type: biochemical

Chain of dipeptidyl peptidase 4 (DPP4) (P27487 39-766): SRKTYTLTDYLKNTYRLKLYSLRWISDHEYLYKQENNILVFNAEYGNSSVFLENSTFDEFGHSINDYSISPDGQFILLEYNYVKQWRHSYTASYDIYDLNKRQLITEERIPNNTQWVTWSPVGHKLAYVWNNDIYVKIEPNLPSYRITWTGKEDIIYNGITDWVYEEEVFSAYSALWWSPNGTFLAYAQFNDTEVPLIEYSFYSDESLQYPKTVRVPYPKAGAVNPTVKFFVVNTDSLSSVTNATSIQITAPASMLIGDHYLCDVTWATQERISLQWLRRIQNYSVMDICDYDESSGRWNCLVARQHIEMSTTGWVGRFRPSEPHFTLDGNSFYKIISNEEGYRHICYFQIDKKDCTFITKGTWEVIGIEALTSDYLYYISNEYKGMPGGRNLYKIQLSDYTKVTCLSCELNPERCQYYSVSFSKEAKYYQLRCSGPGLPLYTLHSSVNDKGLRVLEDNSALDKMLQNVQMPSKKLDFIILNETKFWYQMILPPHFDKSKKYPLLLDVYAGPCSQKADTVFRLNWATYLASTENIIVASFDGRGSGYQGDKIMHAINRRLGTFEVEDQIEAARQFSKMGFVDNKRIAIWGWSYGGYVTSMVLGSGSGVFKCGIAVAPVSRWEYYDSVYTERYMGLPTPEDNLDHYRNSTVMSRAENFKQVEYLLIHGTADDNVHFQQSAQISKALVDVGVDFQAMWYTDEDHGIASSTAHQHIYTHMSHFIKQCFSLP

`O=C(Nc1cc(C(F)(F)F)cc(C(F)(F)F)c1)c1cc(Cl)ccc1O` [IMD-0354, N-(3,5-Bis-trifluoromethylphenyl)-5-chloro-2-hydroxybenzamide] gave an IC50 of 9.2 µM.
